{
  "source": "patent US20140023692A1",
  "about": "“DRUG DELIVERY DEVICE” (priority 2010, published 2014)",
  "origin": "cited, not measured here",
  "key": {"[1]": {"tested_on": "Streptococcus pyogenes"}, "[2]": {"tested_on": "Proteus"}, "[3]": {"tested_on": "Serratia"}, "[4]": {"tested_on": "Enterobacter"}, "[5]": {"details": "topical application, rabbit"}, "[6]": {"tested_on": "Klebsiella"}, "[7]": {"tested_on": "Staphylococcus aureus"}, "[8]": {"tested_on": "Staphylococcus epidermidis"}, "[9]": {"tested_on": "Bacillus cereus"}, "[10]": {"tested_on": "Propionibacterium acnes"}, "[11]": {"tested_on": "Haemophilus influenzae"}, "[12]": {"tested_on": "Pseudomonas"}, "[13]": {"details": "inflamed eyes (intravitreal Staphylococcus aureus, 24 h after inoculation)"}},
  "note": "Where “and” joins values, the source holds several entries; their conditions need not be identical. Equal values may be shown once. Read-outs that look alike come from different tables or passages of the source.",
  "data": [
    {"smiles": "O=C(O)c1cn(C2CC2)c2cc(N3CCNCC3)c(F)cc2c1=O", "note": "[ciprofloxacin]", "values": [
      {"measurement": "MIC90", "setting": "[1]", "result": 0.782, "unit": "µg/mL"},
      {"measurement": "MIC90", "setting": "[2]", "result": 0.267, "unit": "µg/mL"},
      {"measurement": "MIC90", "setting": "[3]", "result": 0.12, "unit": "µg/mL"},
      {"measurement": "MIC90", "setting": "[4]", "result": 0.206, "unit": "µg/mL"},
      {"measurement": "Mean aqueous concentration of ciprofloxacin", "setting": "[5]; [13]", "result": 3.65, "unit": "µg/mL"},
      {"measurement": "Mean vitreous concentration of ciprofloxacin", "setting": "[5]; [13]", "result": 0.32, "unit": "µg/mL"},
      {"measurement": "Mean aqueous concentration of ciprofloxacin", "setting": "[5]; normal eyes", "result": 2.16, "unit": "µg/mL"},
      {"measurement": "Mean vitreous concentration of ciprofloxacin", "setting": "[5]; normal eyes", "result": 0.08, "unit": "µg/mL"},
      {"measurement": "MIC90", "setting": "[6]", "result": 0.295, "unit": "µg/mL"},
      {"measurement": "MIC90", "setting": "[7]", "result": "0.57 µg/mL and 0.796 µg/mL"},
      {"measurement": "MIC90", "setting": "[8]", "result": "0.25 µg/mL and 0.375 µg/mL"},
      {"measurement": "MIC90", "setting": "[9]", "result": 0.25, "unit": "µg/mL"},
      {"measurement": "MIC90", "setting": "[10]", "result": 0.35, "unit": "µg/mL"},
      {"measurement": "MIC90", "setting": "[11]", "result": 0.014, "unit": "µg/mL"},
      {"measurement": "MIC90", "setting": "[12]", "result": "0.50 µg/mL and 0.626 µg/mL"}
    ]}
  ]
}
